Where “and” joins values, the source holds several entries; their conditions need not be identical. Identical values can stand only once. Toxic doses and inconclusive results are not listed. How the source made its calls: active means survival T/C of 150% or more; inactive means T/C below 125% in these data.
System: CD2F1 mice, L1210 leukemia ip, survival T/C
Assay: NCI In Vivo Anticancer Drug Screen. Data for tumor model L1210 Leukemia (intraperitoneal) in CD2F1 (CDF1) mice
Conditions: higher = longer survival
Summary of the method: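 In this screen, transplantable tumors were grown in mice given either the compound or its vehicle. Results were expressed as the treated measurement relative to the control measurement.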

[1] = endpoint: mean survival time, dose: 100.0 mg/kg/injection, schedule: Q01DX001 (ip), vehicle: saline with Tween-80
[2] = endpoint: mean survival time, dose: 200.0 mg/kg/injection, schedule: Q01DX001 (ip), vehicle: saline with Tween-80
[3] = endpoint: mean survival time, dose: 400.0 mg/kg/injection, schedule: Q01DX001 (ip), vehicle: saline with Tween-80
[4] = endpoint: mean survival time, dose: 100.0 mg/kg/injection, schedule: Q01DX009 (ip), vehicle: saline with Tween-80
[5] = endpoint: mean survival time, dose: 200.0 mg/kg/injection, schedule: Q04DX003 (ip), vehicle: saline with Tween-80
[6] = endpoint: mean survival time, dose: 400.0 mg/kg/injection, schedule: Q01DX009 (ip), vehicle: saline with Tween-80
[7] = endpoint: mean survival time, dose: 200.0 mg/kg/injection, schedule: Q01DX009 (ip), vehicle: saline with Tween-80
[8] = endpoint: mean survival time, dose: 100.0 mg/kg/injection, schedule: Q04DX003 (ip), vehicle: saline with Tween-80
[9] = endpoint: mean survival time, dose: 100.0 mg/kg/injection, schedule: Q04DX002 (ip), vehicle: saline with Tween-80
[10] = endpoint: mean survival time, dose: 200.0 mg/kg/injection, schedule: Q04DX002 (ip), vehicle: saline with Tween-80
[11] = endpoint: mean survival time, dose: 100.0 mg/kg/injection, schedule: Q04DX003 (ip), vehicle: other
[12] = endpoint: mean survival time, dose: 200.0 mg/kg/injection, schedule: Q04DX003 (ip), vehicle: other
[13] = endpoint: mean survival time, dose: 400.0 mg/kg/injection, schedule: Q04DX003 (ip), vehicle: other
[14] = endpoint: mean survival time, dose: 400.0 mg/kg/injection, schedule: Q04DX003 (ip), vehicle: saline with Tween-80
[15] = endpoint: mean survival time, dose: 400.0 mg/kg/injection, schedule: Q04DX002 (ip), vehicle: saline with Tween-80

Measured: T/C

Nc1nc(=O)n(CCCOc2cccc(NC(=O)c3cccc(S(=O)(=O)F)c3)c2)cc1-c1ccc(Cl)c(Cl)c1
inactive: [1] 87 % of control | [2] 90 % of control | [3] 87 % of control

OCC(O)C(O)C(O)C(O)CO (centres undefined)
inactive: [4] 98 % of control | endpoint: mean survival time, dose: 100.0 mg/kg/injection, schedule: Q04DX003 (ip), vehicle: saline 96 % of control | [5] 97 % of control | endpoint: mean survival time, dose: 200.0 mg/kg/injection, schedule: Q04DX003 (ip), vehicle: saline 98 % of control | [6] 98 % of control | endpoint: mean survival time, dose: 400.0 mg/kg/injection, schedule: Q04DX003 (ip), vehicle: saline 96 % of control | endpoint: median survival time, dose: 75.0 mg/kg/injection, schedule: Q01DX009 (ip), vehicle: saline with Tween-80 100 % of control | endpoint: median survival time, dose: 150.0 mg/kg/injection, schedule: Q01DX009 (ip), vehicle: saline with Tween-80 97 % of control | endpoint: median survival time, dose: 600.0 mg/kg/injection, schedule: Q01DX009 (ip), vehicle: saline with Tween-80 100 % of control

CC1Cc2ccccc2C1=O (centres undefined)
inactive: [4] 90 % of control | [7] 91 % of control | [6] 94 % of control

COc1cc(/C=C/c2ccccn2)cc(OC)c1OC
inactive: [8] 101 % of control | [5] 91 % of control

N#Cc1c(Cl)cc(C2(OC(=O)c3ccc([N+](=O)[O-])cc3)C3C=CC2CC3)cc1Cl (centres undefined)
inactive: endpoint: median survival time, dose: 25.0 mg/kg/injection, schedule: Q04DX002 (ip), vehicle: saline with Tween-80 100 % of control | endpoint: median survival time, dose: 50.0 mg/kg/injection, schedule: Q04DX002 (ip), vehicle: saline with Tween-80 87 % of control | endpoint: median survival time, dose: 100.0 mg/kg/injection, schedule: Q04DX002 (ip), vehicle: saline with Tween-80 100 % of control | endpoint: median survival time, dose: 200.0 mg/kg/injection, schedule: Q04DX002 (ip), vehicle: saline with Tween-80 100 % of control

CCCCCCNC(=O)Oc1c(C/C=C/CCC(=O)O)c(OC)c(C)c2c1C(=O)OC2
inactive: [9] 108 % of control | [10] 112 % of control

O=C(CC(O)(C(F)(F)F)C(F)(F)F)c1ccc(Cl)c2ccccc12
inactive: endpoint: mean survival time, dose: 100.0 mg/kg/injection, schedule: Q01DX001 (ip), vehicle: other 102 % of control | endpoint: mean survival time, dose: 200.0 mg/kg/injection, schedule: Q01DX001 (ip), vehicle: other 100 % of control | endpoint: mean survival time, dose: 400.0 mg/kg/injection, schedule: Q01DX001 (ip), vehicle: other 96 % of control

CC1(C)CC(=O)c2cc([C@@H]3OC[C@@H](O)[C@H]3O)[nH]c2C1
inactive: endpoint: median survival time, dose: 12.5 mg/kg/injection, schedule: Q01DX005 (ip), vehicle: water 101 % of control | endpoint: median survival time, dose: 25.0 mg/kg/injection, schedule: Q01DX005 (ip), vehicle: water 101 % of control | endpoint: median survival time, dose: 50.0 mg/kg/injection, schedule: Q01DX005 (ip), vehicle: water 101 % of control | endpoint: median survival time, dose: 100.0 mg/kg/injection, schedule: Q01DX005 (ip), vehicle: water 94 % of control | endpoint: median survival time, dose: 200.0 mg/kg/injection, schedule: Q01DX005 (ip), vehicle: water 96 % of control

CCOC(=O)Nc1ccccc1[N+](=O)[O-]
inactive: [11] 98 % of control | [12] 102 % of control | [13] 98 % of control

C=C1C(O)CC2CC1C2(C)C (centres undefined)
inactive: endpoint: mean survival time, dose: 50.0 mg/kg/injection, schedule: Q01DX009 (ip), vehicle: saline with Tween-80 98 % of control

CCN1CCCC(Nc2nc(Nc3ccc(Cl)c(Cl)c3)nc3ccc(Cl)cc23)C1 (centres undefined)
inactive: [8] 89 % of control | [5] 94 % of control

CC(C)CC(NC(=O)c1ccccc1)C(N)=O (centres undefined)
inactive: [8] 101 % of control | [5] 97 % of control | [14] 92 % of control

c1cc2nc(c1)CSCCCCCCCSC2
inactive: [4] 98 % of control | [7] 90 % of control | [6] 93 % of control

CC(C)(C)NC(C1=CC(C)(C)c2ccccc2C1=O)c1ccccc1 (centres undefined)
inactive: endpoint: median survival time, dose: 50.0 mg/kg/injection, schedule: Q01DX009 (ip), vehicle: Klucel (hydroxypropylcellulose) (HPC) 101 % of control | endpoint: median survival time, dose: 100.0 mg/kg/injection, schedule: Q01DX009 (ip), vehicle: Klucel (hydroxypropylcellulose) (HPC) 101 % of control | endpoint: median survival time, dose: 200.0 mg/kg/injection, schedule: Q01DX009 (ip), vehicle: Klucel (hydroxypropylcellulose) (HPC) 101 % of control

CN(C)CCN(C)C
inactive: endpoint: mean survival time, dose: 100.0 mg/kg/injection, schedule: Q01DX009 (ip), vehicle: saline 96 % of control | endpoint: mean survival time, dose: 400.0 mg/kg/injection, schedule: Q01DX009 (ip), vehicle: saline 106 % of control

O=C(O)CC1C(=O)OC2C3COC(=O)c4cc(O)c(O)c(O)c4-c4c(cc(O)c(O)c4O)C(=O)OC2C(OC(=O)c2cc(O)c(O)c4c2C1C(O)C(=O)O4)C(OC(=O)c1cc(O)c(O)c(O)c1)O3 (centres undefined)
inactive: endpoint: median survival time, dose: 3.12 mg/kg/injection, schedule: Q01DX009 (ip), vehicle: saline 102 % of control | endpoint: median survival time, dose: 6.25 mg/kg/injection, schedule: Q01DX009 (ip), vehicle: saline 98 % of control | endpoint: median survival time, dose: 12.5 mg/kg/injection, schedule: Q01DX009 (ip), vehicle: saline 101 % of control | endpoint: median survival time, dose: 25.0 mg/kg/injection, schedule: Q01DX009 (ip), vehicle: saline 98 % of control | endpoint: median survival time, dose: 50.0 mg/kg/injection, schedule: Q01DX009 (ip), vehicle: saline 100 % of control

O=C(CSC1=NCCN1)c1ccccc1
inactive: endpoint: mean survival time, dose: 12.5 mg/kg/injection, schedule: Q01DX009 (ip), vehicle: saline 101 % of control | endpoint: mean survival time, dose: 25.0 mg/kg/injection, schedule: Q01DX009 (ip), vehicle: saline 101 % of control | endpoint: mean survival time, dose: 50.0 mg/kg/injection, schedule: Q01DX009 (ip), vehicle: saline 102 % of control

Cc1c2ccc3ccccc3c2c[n+]2ccccc12
inactive: endpoint: mean survival time, dose: 1.25 mg/kg/injection, schedule: Q01DX009 (ip), vehicle: Klucel (hydroxypropylcellulose) (HPC) 87 % of control and 102 % of control | endpoint: mean survival time, dose: 2.5 mg/kg/injection, schedule: Q01DX009 (ip), vehicle: Klucel (hydroxypropylcellulose) (HPC) 98 % of control and 102 % of control | endpoint: mean survival time, dose: 5.0 mg/kg/injection, schedule: Q01DX009 (ip), vehicle: Klucel (hydroxypropylcellulose) (HPC) 100 % of control and 105 % of control | endpoint: mean survival time, dose: 10.0 mg/kg/injection, schedule: Q01DX009 (ip), vehicle: Klucel (hydroxypropylcellulose) (HPC) 104 % of control and 110 % of control | endpoint: mean survival time, dose: 20.0 mg/kg/injection, schedule: Q01DX009 (ip), vehicle: Klucel (hydroxypropylcellulose) (HPC) 105 % of control

Cc1cc2ccc(OC(=O)c3ccc(N=C(N)N)cc3)cc2oc1=O
inactive: [4] 91 % of control | [7] 91 % of control | [6] 86 % of control

CN(C)c1ccc(C(O)c2ccc(N(C)C)cc2)cc1
inactive: [8] 90 % of control | [5] 91 % of control | [14] 94 % of control

COc1cc(C=Nc2cccc3ccccc23)cc(OC)c1OC
inactive: [1] 98 % of control | [4] 88 % of control and 93 % of control | [9] 89 % of control and 100 % of control | [8] 103 % of control | [2] 95 % of control | [7] 91 % of control and 96 % of control | [10] 89 % of control and 96 % of control | [5] 96 % of control | [3] 88 % of control | [6] 92 % of control and 95 % of control | [15] 96 % of control and 100 % of control | [14] 92 % of control

O=C(c1ccccc1)C1CC2CCC1CC2 (centres undefined)
inactive: endpoint: mean survival time, dose: 50.0 mg/kg/injection, schedule: Q04DX002 (ip), vehicle: saline with Tween-80 96 % of control | [9] 86 % of control | [10] 93 % of control | [15] 89 % of control

COC1=CCC(OC)=C(C)C1
inactive: [8] 93 % of control

CN(C)N1C(=O)c2ccccc2C1=O
inactive: [11] 96 % of control | [12] 104 % of control | [13] 98 % of control

COc1ccc2ccccc2c1-c1c(O)ccc2ccccc12
inactive: endpoint: mean survival time, dose: 12.5 mg/kg/injection, schedule: Q01DX009 (ip), vehicle: other 101 % of control | endpoint: mean survival time, dose: 25.0 mg/kg/injection, schedule: Q01DX009 (ip), vehicle: other 97 % of control | endpoint: mean survival time, dose: 50.0 mg/kg/injection, schedule: Q01DX009 (ip), vehicle: other 91 % of control

COC(=O)CCNc1ccccc1
inactive: endpoint: mean survival time, dose: 100.0 mg/kg/injection, schedule: Q01DX001 (ip), vehicle: Klucel (hydroxypropylcellulose) (HPC) 101 % of control | [8] 100 % of control | endpoint: mean survival time, dose: 200.0 mg/kg/injection, schedule: Q01DX001 (ip), vehicle: Klucel (hydroxypropylcellulose) (HPC) 101 % of control | [5] 96 % of control | endpoint: mean survival time, dose: 400.0 mg/kg/injection, schedule: Q01DX001 (ip), vehicle: Klucel (hydroxypropylcellulose) (HPC) 96 % of control | [14] 96 % of control

CN(C)CCCNC(=S)S
inactive: endpoint: mean survival time, dose: 6.0 mg/kg/injection, schedule: Q04DX003 (ip), vehicle: saline 95 % of control | endpoint: mean survival time, dose: 12.0 mg/kg/injection, schedule: Q04DX003 (ip), vehicle: saline 93 % of control | endpoint: mean survival time, dose: 25.0 mg/kg/injection, schedule: Q04DX003 (ip), vehicle: saline 106 % of control
